Assay results from patent US20140212441A1, “PHARMACEUTICAL COMPOSITION FOR INFLAMMATORY DISEASES, ALLERGIC DISEASES AND AUTOIMMUNE DISEASES” (R-TECH UENO, LTD., priority 2011, published 2014).

Legend:
[1] = test system: LPS-stimulated mouse B cell proliferation; assay: B cell proliferation suppression test; type: cell-based; settings: LPS-stimulated Balb/c spleen B lymphocytic cells, 3H thymidine uptake
Description: B lymphocytic cells (2×10^6/mL) isolated from the spleen of Balb/c mice (weighing 17±1 g) were cultured in a pH 7.4 AIM-V medium containing a given concentration of compound A and […] of a lipopolysaccharide (LPS) at 37° C. for 24 hours, and, after added with 120 nM ^3H thymidine, further cultured for 16 hours. The cells were collected by filter filtration, and the uptake of thymidine into the cells was measured using a liquid scintillation counter to evaluate the cell proliferation-suppressing effect and calculate IC50.

[2] = test system: Con A-stimulated mouse T cell proliferation; assay: T cell proliferation suppression test; type: cell-based; settings: Con A-stimulated Balb/c thymus T lymphocytic cells, 3H thymidine uptake
Description: T lymphocytic cells (5×10^6/mL) isolated from the thymus of Balb/c mice (weighing 17±1 g) were cultured in a pH 7.4 AIM-V medium containing a given concentration of compound A and […] of concanavalin A (Con A) at 37° C. for 24 hours, and, after added with 120 nM ^3H thymidine, further cultured for 16 hours. The cells were collected by filter filtration, and the uptake of thymidine into the cells was measured using a liquid scintillation counter to evaluate the cell proliferation-suppressing effect and calculate IC50.

[3] = test system: transcription factor NFAT-1; assay: NF-AT gene transcription suppression test (lac Z reporter, Jurkat cells); type: cell-based; settings: Homo sapiens, lac Z under NFAT-1 site, A23187 + PMA, β-galactosidase activity
Description: (§1) Human T lymphocyte Jurkat cells transformed with a β-galactosidase gene (lac Z) having a DNA binding site for the transcription factor NFAT-1 in its transcriptional control region (2.3×10^6/mL) were cultured together with a given concentration of compound A in a pH 7.4 RPMI-1640 medium at 37° C. for 20 minutes, and, after added with […] A23187 (calcium ionophore) and 50 ng/mL PMA (Phorbol 12-myristate 13-acetate), further cultured for 4 hours. The activity of β-galactosidase was measured by conversion from FDG (fluorescein-di-beta-D-galactopyranoside) to fluorescein. Fluorescent emission was measured using a SpectroFluor Plus plate reader and IC50 was calculated.

[4] = test system: transcription factor NF-κB; assay: NF-κB gene transcription suppression test (lac Z reporter, Jurkat cells); type: cell-based; settings: Homo sapiens, lac Z under NF-κB site, A23187 + PMA, β-galactosidase activity
Description: as §1, with “NF-κB” for “NFAT-1”

[5] = test system: PiCl-induced atopic dermatitis model mice (NC/NgaTndCrlj, male); assay: Atopic dermatitis mouse model: dermatitis score; type: in vivo; design: key to Dermatitis score (average ± standard error): sum of grades of five findings, each 0 (subclinical) to 3 (severe)
Description: (§2) An atopic dermatitis mouse model (NC/NgaTndCrlj, male) induced by picryl chloride (PiCl) was used to evaluate effects against dermal inflammation and hair conditions on the skin suffering from dermal inflammation.
(§3) PiCl-induced atopic dermatitis model mice were prepared by applying a PiCl solution to the sheared abdomen and footpad for sensitization and applying the PiCl solution to the sheared back and the right and left ears (both the inside and outside thereof) once a week for 5 weeks starting from the 5th day after sensitization for repeated induction. In each group, administration was performed once a day for 28 days starting from the 18th day after PiCl sensitization. Compound A and 0.1% tacrolimus ointment were openly applied to a ca. 3 cm×ca. 5 cm region of the neck and back of the model animals. The animals of the 5th group (the group of combined administration of prednisolone and 0.6 w/v % compound A) were orally administered 1 mg/kg of prednisolone and then transdermally administered 0.6 w/v % compound A. The animals of the 6th group (the group of combined administration of 0.1% tacrolimus ointment and 0.6 w/v % compound A) were administered 0.1% tacrolimus ointment at or beyond 3.5 hours after administration of 0.6 w/v % compound A.
(§4) Each evaluation used a dermatitis score and a hair restoration score. The scores were obtained by grading dermatitis and hair growth/hair restoration conditions at Day 1, 8, 15, 22, and 29 (the next day after final administration) of administration, according to the following criteria.
<Dermatitis Findings> The dermatitis score of each individual was expressed as the sum of grades (0: subclinical to 3: severe) of the following dermatitis findings (1) to (5).
(2) Flare/bleeding: Flare and bleeding symptoms in the induction site were observed.
(3) Edema: The edema of the auricle as the induction site was qualitatively observed.
An effect against atopic dermal inflammation was evaluated using the dermatitis score at Day 8 of administration.

[6] = test system: PiCl-induced atopic dermatitis model mice (NC/NgaTndCrlj, male); assay: Atopic dermatitis mouse model: hair restoration score; type: in vivo; design: key to Hair restoration score (average ± standard error): 0 = no hair growth, 3 = hair restoration in 75-100% of site
Description: as §2, §3, §4
<Hair Growth/Hair Restoration Condition> A region received transdermal administration (a ca. 3 cm×ca. 5 cm region of the neck and back) of each individual was observed.
0: No hair growth or hair restoration is noted in the observation site.
1: Hair growth and hair restoration are noted in 0<25% of the observation site.
2: Hair growth and hair restoration are noted in 25≦75% of the observation site.
3: Hair growth and hair restoration are noted in 75≦100% of the observation site.
Hair condition in the skin suffering from dermal inflammation was evaluated using hair restoration scores at Day 15, 22 and 29 of administration.

[7] = 0.08 w/v % Compound A transdermal once a day, Day 15
[8] = 0.08 w/v % Compound A transdermal once a day, Day 22
[9] = 0.08 w/v % Compound A transdermal once a day, Day 29
[10] = 0.3 w/v % Compound A transdermal once a day, Day 1
[11] = 0.3 w/v % Compound A transdermal once a day, Day 15
[12] = 0.3 w/v % Compound A transdermal once a day, Day 22
[13] = 0.3 w/v % Compound A transdermal once a day, Day 29
[14] = 0.6 w/v % Compound A transdermal once a day, Day 1
[15] = 0.6 w/v % Compound A transdermal once a day, Day 15
[16] = 0.6 w/v % Compound A transdermal once a day, Day 22

## CCCCCCCC1(CC[C@@H]2[C@@H](C/C=C\CCCC(=O)OC(C)C)[C@@H](O)C[C@H]2O)OCCO1 [Compound A, isopropyl (Z)-7-[(1R,2R,3R,5S)-2-(3,3-ethylenedioxydecyl)-3,5-dihydroxycyclopentyl]hept-5-enoate]
[1]
  IC50: 9.23 µM
[2]
  IC50: 6.3 µM
[3]
  IC50: 1320 nM
[4]
  IC50: 1330 nM
[5]; 0.08 w/v % Compound A transdermal once a day, Day 1 of administration
  Dermatitis score (average ± standard error): 3.8 ± 0.4
[5]; 0.08 w/v % Compound A transdermal once a day, Day 8
  Dermatitis score (average ± standard error): 3.7 ± 0.6
[5]; [7]
  Dermatitis score (average ± standard error): 6.2 ± 0.7
[5]; [8]
  Dermatitis score (average ± standard error): 8.0 ± 0.5
[5]; [9]
  Dermatitis score (average ± standard error): 9.0 ± 0.7
[5]; [10]
  Dermatitis score (average ± standard error): 3.3 ± 0.5
[5]; 0.3 w/v % Compound A transdermal once a day, Day 8
  Dermatitis score (average ± standard error): 3.5 ± 0.4
[5]; [11]
  Dermatitis score (average ± standard error): 5.5 ± 0.5
[5]; [12]
  Dermatitis score (average ± standard error): 7.5 ± 0.7
[5]; [13]
  Dermatitis score (average ± standard error): 8.1 ± 0.5
[5]; [14]
  Dermatitis score (average ± standard error): 3.6 ± 0.3
[5]; [15]
  Dermatitis score (average ± standard error): 6.0 ± 0.7
[5]; [16]
  Dermatitis score (average ± standard error): 8.3 ± 0.4
[5]; 0.6 w/v % Compound A transdermal once a day, Day 29
  Dermatitis score (average ± standard error): 9.3 ± 0.6
[5]; compared to the group administered with the base for compound A, Day 8 dermatitis score
  progression of early dermatitis: tendency to be suppressed
[6]; 0.08 w/v % Compound A transdermal once a day, Day 1
  Hair restoration score (average ± standard error): 0.0 ± 0.0
[6]; [7]
  Hair restoration score (average ± standard error): 2.2 ± 0.1
[6]; [8]
  Hair restoration score (average ± standard error): 1.4 ± 0.2
[6]; [9]
  Hair restoration score (average ± standard error): 1.5 ± 0.2
[6]; [10]
  Hair restoration score (average ± standard error): 0.0 ± 0.0
[6]; [11]
  Hair restoration score (average ± standard error): 2.1 ± 0.2
[6]; [12]
  Hair restoration score (average ± standard error): 1.6 ± 0.2
[6]; [13]
  Hair restoration score (average ± standard error): 1.9 ± 0.2
[6]; [14]
  Hair restoration score (average ± standard error): 0.0 ± 0.0
[6]; [15]
  Hair restoration score (average ± standard error): 1.8 ± 0.2
[6]; [16]
  Hair restoration score (average ± standard error): 1.5 ± 0.2
[6]; 0.6 w/v % Compound A transdermal once a day, Day 29, P < 0.05 vs Day 22
  Hair restoration score (average ± standard error): 2.0 ± 0.0
[6]; Day 29 of administration compared to Day 22
  change in hair restoration score (improvement in the hair loss): observed in a dose-dependent manner
